The values below are quoted from earlier work in patent US20070036851A1, “Acid labile drug compositions” (priority 2002, published 2007).

For the data set the following is noted: in vitro, water, pH of about 6; colour changes from clear to yellow, then brown, then purple.

Turning to `COc1ccc2[nH]c([S+]([O-])Cc3ncc(C)c(OC)c3C)nc2c1` (stereo not shown) [omeprazole], the “stability at acidic pH (drug degradation)” value is given as “quickly cyclizes”.
